Laboratory results: patent US20150241410A1, “INHIBITORS OF CENTRAL NERVOUS SYSTEM VASOACTIVE INHIBITORY PEPTIDE RECEPTOR 2” (The Trustees Of Columbia University In The City Of New York, priority 2012, published 2015)
Entries after “also recorded” stand apart in the source; their conditions may differ.

Tests used:
Format in all cases: cell-based
[1] = biological target: T1, VIPR2 (Homo sapiens, UniProt P41587); assay: BRET-based VIPR2 activation assay (CAMYEL cAMP sensor, CHO cells, VIP background); settings: for IC50: Table 3, read-out: IC50 (from BRET)
T1 construct: expressed in transfected cells
T1 sequence (P41587 24-438): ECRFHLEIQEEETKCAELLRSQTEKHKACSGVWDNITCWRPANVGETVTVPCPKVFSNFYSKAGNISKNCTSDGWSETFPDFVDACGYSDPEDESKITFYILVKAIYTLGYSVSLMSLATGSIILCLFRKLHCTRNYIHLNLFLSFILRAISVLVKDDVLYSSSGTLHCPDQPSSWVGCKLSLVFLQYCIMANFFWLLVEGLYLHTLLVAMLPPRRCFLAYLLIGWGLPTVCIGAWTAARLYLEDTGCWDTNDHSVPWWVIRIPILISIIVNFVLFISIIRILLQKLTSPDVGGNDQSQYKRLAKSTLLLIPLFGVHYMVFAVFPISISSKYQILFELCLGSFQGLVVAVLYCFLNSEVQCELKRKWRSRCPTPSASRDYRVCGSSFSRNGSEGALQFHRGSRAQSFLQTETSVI
Method: FIG. 5A-B. Results of BRET-based VIPR2 activation assays in cells expressing both the VIPR2 receptor and CAMYEL (see FIG. 1A for schematic). a) Inhibitory dose-response curves on treatment of CHO cells with increasing concentrations of a batch of antagonists against a background of VIP activation (VIP=5 nM).
In such a system, a detector cell is used which expresses both the VIPR2 receptor and “CAMYEL,” a YFP-Epac-RLuc8 BRET sensor construct. This construct includes Epac1, a guanine nucleotide exchange factor activated by direct binding of cAMP, fused with an enhanced YFP and Renilla luciferase 8 (Rluc8) allowing BRET upon cAMP-induced conformational changes (Jiang et al., 2007, J Biol Chem. 282:10576-10584). In response to elevated cAMP levels, there is a conformational change in Epac and therefore a change in the proximity of the fused chromophores, Rluc8 and YFP, resulting in measurable energy transfer. Coexpression of this BRET construct with VIPR2. optionally tagged at the N-terminus with a signal peptide and FLAG epitope (SF-VIPR2), for example in HEK293 cells, allows for detection of a VIPR2-specific response to cAMP. BRET readout may be calculated by quantifying the ratio of the light emitted by the acceptor, YFP (λ=525 nm), over the emission from the donor, RLuc8 (λ=485 nm). The proximity of the donor and acceptor, and therefore the BRET ratio, decreases in the presence of cAMP. In non-limiting specific embodiments, a stable cell line may be generated for this assay using the Flp-In T-Rex system in HEK293 cells. This system allows site-specific single copy integration of the gene of interest and control of expression levels using the Tet-repressor site making receptor expression tetracycline-inducible. For example, a CAMYEL and VIPR2 expressing line may be induced with 0.01 μg/ml tetracycline, then, 24 hours later cells may be collected and distributed into 96-well plates. After treatment with candidate inhibitor compound, for example at 5, 1 and 0.5 μM concentrations, cells may be incubated with the light emitting luciferin, coelenterazine H, for 5 min and incubated for 5 min with VIP at increasing concentrations, for example ranging from 100 pM to 10 μM. The fluorescence and luminescence may then be quantified, for example using a PHERAstar (BMG) plate reader. […] Alternatively, analogous experiments may be performed using human cells harvested from a patient having a VIPR2 copy number variation, for example (but not by way of limitation) pluripotent stem cells prepared from such a patient and then transfected with a CAMYEL construct.
(§1) A series of compounds were prepared using a synthetic method analogous to that set forth in Scheme 1, above, and then tested for their ability to inhibit VIP-induced cAMP elevation and β-arrestin recruitment, as described herein (Discoverx Corporation, Fremont, Calif., US). Compound activities were also tested in a BRET-based assay, as described herein. The results are shown below in Tables 1-4, above.
Numerous cellular assays were developed that were able to detect VIP responses absent of interference from non-specific vasopressin receptors using this CHO based system. VIPR2 is a Gs coupled receptor. Activation of VIPR2 by VIP leads to both an elevation in cAMP signaling and the recruitment of β-arrestin. A variety of combinations can be transiently transfect into these CHO cells for the assessment of cellular responses to VIP. For the BRET readout CHO cell lines expressing an YFP-Epac-RLuc8 (CAMYEL) BRET sensor were used to detect changes in cAMP. This construct includes Epac1, a guanine nucleotide exchange factor activated by direct binding of cAMP, fused to an enhanced YFP and RLuc8 allowing a change in BRET upon cAMP-induced conformational changes. The key for medium to high throughput screening assays is the use of stable cell lines allowing the continuous assaying of multiple compounds with the ability to generate large numbers of cells for rapid use. […]

[2] = biological target: T1, VIPR2; assay: Inhibition of VIP-induced cAMP elevation (% Activity)
Excerpt: In a further non-limiting embodiment of the invention, the ability of a compound to inhibit VIPR2 and […] may be measured using a Homogeneous Time-Resolved Fluorescence (“HTRF® assay; Cisbio Bioassays) as used in Chu et al., 2010, Molecular Pharmacol. 7795-101. In a method as used in Chu et al., 2010, Molecular Pharmacol. 7795-101, HEK293 cells may be transfected with nucleic acid encoding VIPR2, for example human VIPR2 (“hVIPR2”), for example comprised in a vector such as pCDNA3.1 vector. Successful transformnnants may then be selected, for example using 800 μg/ml G418. Clonal stable cell lines may then be generated by limited dilution to single cells and then may be clonally expanded and tested for VIP-dependent cAMP response. For the cAMP assay, about 3000-15,000 cells (in about 4-25 μl) may be placed in a well of an assay plate. The next day, inhibitor or test inhibitor and VIP may be added in a volume about 1-2 percent of the initial volume. Assay plates may then be returned to a cell incubator for 30 min before addition of a one-half volume of cAMP conjugate and, relative to the amount of cAMP conjugate, an equal volume of anti-cAMP conjugate (Cisbio). After at least 1 h of room-temperature incubation, HTRF signal may be read, for example using Viewlux or EnVision (PerkinElmer Life and Analytical Sciences, Waltham, Mass.). The ratio of […] at 665 nm and 620 nm times 10,000 may be calculated and plotted.
(§2) A series of compounds were prepared using a synthetic method analogous to that set forth in Scheme 1, above, and then tested for their ability to inhibit VIP-induced cAMP elevation and β-arrestin recruitment.
as §1

[3] = biological target: T1, VIPR2; assay: Inhibition of VIP-induced β-arrestin recruitment (% Activity)
Excerpt: In a further non-limiting embodiment of the invention, the ability of a compound to inhibit VIPR2 GPCR activity may be tested, for example, using the PathHunter® eXpress 3-Arrestin GPCR system (Discoverx Corporation, Fremont, Calif., US), as used by Chu et al., 2010, Molecular Pharmacol. 7795-101. In this assay, J-Arrestin is fused to the “Enzyme Acceptor” (“EA”), an N-terminal deletion mutant of β-gal, and the GPCR of interest is fused to a smaller (42 amino acids), weakly complementing portion of the β-gal enzyme (termed “ProLink™”). In cells that stably express these fusion proteins, the interaction of β-Arrestin and the GPCR following ligand stimulation forces the complementation of the two β-gal fragments resulting in the formation of a functional enzyme that converts substrate to detectable signal. In the absence of an interaction between the GPCR and β-Arrestin, the enzyme activity is low due to the low affinity of the two enzyme fragments. For example, a nucleic acid encoding VIPR2, for example hVIPR2, may be cloned into the ProLink vector (DiscoveRx) for GPCR-ProLink fusion protein production. Parental HEK293 cells that stably express β-arrestin2-β-gal-EA fusion protein (DiscoveRx) may be detached and transiently transfected with the VIPR2-containing vector using Fugene6 transfection reagent in suspension mode. Transfected cells in assay medium may be plated into test plates, for example at 15,000 cells/25 μl/well. After overnight incubation, 500 n1 of an inhibitor or test inhibitor may be introduced into the test plate followed by 2 h incubation at 37° C., 5% CO2. Flash detection reagents may be added at 12.5 μl/well. After 5 min to 1 h of room-temperature incubation, the cell plates may be read on CLIPR (PerkinElmer Life and Analytical Sciences) or Acquest (Molecular Devices, Sunnyvale, Calif.) for luminescence signal.
as §2, §1

O=C(N[C@H]1c2ccccc2C[C@H]1O)[C@H](Cc1ccccc1)C[C@H](O)CNS(=O)(=O)c1ccc([N+](=O)[O-])cc1 [Compound 1, reference compound]
shift of VIP dose-response curve ([1]; increasing doses of compound (FIG. 1C)): rightward shift

O=C([C@H](Cc1ccccc1)C[C@H](O)CNS(=O)(=O)c1ccc([N+](=O)[O-])cc1)N1CCOCC1 [Compound B9A]
inhibition at 0.5 µM ([2]; Batch 2): 3.8%

O=C([C@@H](Cc1ccccc1)C[C@H](O)CNS(=O)(=O)c1ccc([N+](=O)[O-])cc1)N1CCOCC1 [Compound B9B]
inhibition at 1 µM ([2]; 1 μM, Batch 2): -10.4%

O=C(NC1CCCc2ccccc21)[C@@H](Cc1ccccc1)C[C@H](O)CNS(=O)(=O)c1ccc([N+](=O)[O-])cc1 (stereo partly shown) [Compound B13B]
% activity (β-arrestin recruitment) at 1 µM ([3]; 1 μM, Batch 2): 5.9%

O=C([C@@H](Cc1ccccc1)C[C@H](O)CNS(=O)(=O)c1ccc([N+](=O)[O-])cc1)N1CCCCC1 [Compound B18B]
inhibition at 0.5 µM ([3]; Batch 2): 9.5%

CCC(=O)Nc1ccc(S(=O)(=O)NC[C@@H](O)C[C@@H](Cc2ccccc2)C(=O)N[C@H]2c3ccccc3C[C@H]2O)cc1 [Compound X091]
inhibition at 0.5 µM ([3]; Batch 3): 3.4%

O=C(N[C@H]1c2ccccc2C[C@H]1O)[C@H](Cc1ccccc1)C[C@H](O)CNS(=O)(=O)c1ccc(C(=O)N2CCCCC2)cc1 [Compound X101]
inhibition at 0.5 µM ([2]; Batch 3): -5.3%

CS(=O)(=O)c1ccc(S(=O)(=O)NC[C@@H](O)C[C@@H](Cc2ccccc2)C(=O)N[C@H]2c3ccccc3C[C@H]2O)cc1 [Compound X111]
IC50 [1]: 13.3 µM

O=C(N[C@H]1c2ccccc2C[C@H]1O)[C@H](Cc1ccccc1)C[C@H](O)CNS(=O)(=O)c1ccc(OC(F)(F)F)cc1 [Compound X112]
IC50 [1]: 152 µM

CCCc1ccc(S(=O)(=O)NC[C@@H](O)C[C@@H](Cc2ccccc2)C(=O)N[C@H]2c3ccccc3C[C@H]2O)cc1 [Compound X113]
IC50 [1]: 4.2 µM

Cc1ccc(S(=O)(=O)NC[C@@H](O)C[C@@H](Cc2ccccc2)C(=O)N[C@H]2c3ccccc3C[C@H]2O)cc1C [Compound X116]
IC50 [1]: 13.3 µM

CCC(C)c1ccc(S(=O)(=O)NC[C@@H](O)C[C@@H](Cc2ccccc2)C(=O)N[C@H]2c3ccccc3C[C@H]2O)cc1 (stereo partly shown) [Compound X117]
IC50 [1]: 152 µM

CCCOc1ccc(S(=O)(=O)NC[C@@H](O)C[C@@H](Cc2ccccc2)C(=O)N[C@H]2c3ccccc3C[C@H]2O)cc1 [Compound X118]
IC50 [1]: 4.2 µM

CCC(C)Oc1ccc(S(=O)(=O)NC[C@@H](O)C[C@@H](Cc2ccccc2)C(=O)N[C@H]2c3ccccc3C[C@H]2O)cc1 (stereo partly shown) [Compound X120]
IC50 [1]: 45.8 µM

O=C(N[C@H]1c2ccccc2C[C@H]1O)[C@H](Cc1ccccc1)C[C@H](O)CNS(=O)(=O)c1ccc(C(F)(F)F)cc1 [F]
VIPR2 inhibition in BRET-based assay, in words ([1]; compared with Compound 1 or other compounds (FIG. 1C, FIG. 5B)): greater activity than Compound 1; also recorded: greater effect on VIPR2 inhibition than Compound 1

COc1cc(C(=O)NC[C@@H](O)C[C@@H](Cc2ccccc2)C(=O)N[C@H]2c3ccccc3C[C@H]2O)cc(OC)c1OC [H]
inhibition at 1 µM ([3]; 1 μM, Batch 1): 3.2%
